# Measurements from patent US20240238218A1, “[…] A […] ACTIVE COMPOUND AND METHOD OF PREPARATION THEREOF” (GW Research Limited, priority 2021, published 2024).
# Assays:
# [1] = tested on: DBA/2 mice; test: DBA/2 mouse audiogenic seizure test; type: in vivo; conditions: for Clonic convulsion, Latency (s) Median / Tonic extension, Latency (s) Median / Wild running, Latency (s) Median: bell maximum 60 seconds; for Mice with a rectal temperature below 35.0° C / Tremor noted (number of mice): group of 10
# Source text: The DBA/2 audiogenic seizure test, which detects anticonvulsant activity, follows that described by Dürmüller et al. (NeuroReport, vol. 4, no. 6, pages 683-686, 1993).
# 60 male DBA/2 mice (3-4 weeks old) were included in the experiment (weight range 8-11 g at the beginning of the experiment). Animals were acclimatized to the test facility for 1 day after delivery and randomly housed in groups of 5 in macrolon cages on wood litter with free access to food and water.
# Mice were individually transferred (at 3-5 minutes intervals) from the preparation room into an adjacent experimental room and body temperature was measured using a rectal thermometer. Immediately after, they were placed in a Plexiglas jar (Diameter=40 cm; Height=35 cm) mounted with an electric bell. Upon activating the bell, the occurrences and latencies to wild running fits, clonic and tonic seizures were measured. Deaths were also recorded. The bell was activated until a tonic seizure occured or for a maximum of 60 seconds.
# The experiment included 6 groups (10 mice were studied per group). Experimenters were blinded to the treatment groups.
# The test substance was evaluated at 4 doses, administered i.p. (10 mL/kg) 30 or 60 minutes before the test, and compared with a vehicle control group. Doses and pre-treatment times were based on previous pharmacokinetic data.
# (§1) Test compound: Compound I dissolved in 5% ethanol, 10% Kolliphor HS15, 85% physiological saline.
# (§2) Vehicle control: 5% ethanol, 10% Kolliphor HS15, 85% physiological saline.
# Reference: Valproate (180 mg/kg), dissolved in 5% ethanol, 10% Kolliphor HS15, 85% physiological saline.
# Quantitative data (latencies) with the test substance were analyzed by comparing treated groups with vehicle control using Kruskal-Wallis test followed by Dunn's multiple comparisons test. Quantitative data with the reference substance were analyzed using Mann-Whitney U test.
# Quantal data (frequencies) were analyzed by comparing treated groups with vehicle control using Fisher's Exact Probability tests.
# [2] = tested on: RjOrl: Swiss mice; test: Mouse 6 Hz (44 mA) psychomotor seizure test; type: in vivo; conditions: for Forelimb clonus (mean ± s.e.m.): score 0-2
# Source text: The 6 Hz Psychomotor Test, which detects anticonvulsant activity, follows that described by Brown et al. (J. Pharmacol. Exp. Ther. 107, 273-283, 1953).
# Male RjOrl: Swiss mice, 5 weeks old, weighing 28-38 g at the beginning of the experiment. Animals were acclimatized to the test facility for at least 5 days after delivery and randomly housed in groups of 3-4 in macrolon cages on wood litter with free access to food and water.
# Before transcorneal stimulation, a drop of tetracaine solution (2%) was applied on each eye of the mouse for local anesthesia. Between 1-10 minutes later, at the pre-treatment time specified for the test compound, the mice were administered a rectangular current (44 mA, rectangular pulse: 0.2 ms pulse width, 3 s duration, 6 Hz) via corneal electrodes connected to a constant current shock generator.
# The number of seizures as reflected by forelimb clonus were recorded immediately after current administration. Forelimb clonus was scored as absent (0=no forelimb clonus), mild (1=clonus with one forelimb) and strong (2=clonus with both forelimbs).
# […] The experimenters were blinded to the treatment. The cages were randomly assigned to a treatment code, each designating one treatment group.
# Compound I was administered intraperitoneally at 20 and 50 mg/kg, 30 minutes before the test, and at 100 and 200 mg/kg, 60 minutes before the test and were compared with the vehicle control (5% ethanol, 10% […], 85% physiological saline).
# Valproate (300 mg/kg i.p.), administered 30 minutes before the test, was used as reference substance and was compared with the vehicle control (5% ethanol, 10% Kolliphor HS15, 85% physiological saline).
# as §1, §2
# Reference: Valproate (300 mg/kg), dissolved in 5% ethanol, 10% Kolliphor HS15, 85% physiological saline.
# Data were assumed to be non-normally distributed based on validation data, therefore non-parametric tests were utilized. Quantitative data (scores) with the test substance were analyzed by comparing treated groups with the corresponding vehicle control using Kruskal-Wallis test with Dunn's multiple comparisons test when the Kruskal-Wallis Test was significant. Quantitative data with the reference substance was analysed using Mann-Whitney U test.
# [3] = 20 mg/kg i.p., 30 min before the test
# [4] = 50 mg/kg i.p., 30 min before the test
# [5] = 100 mg/kg i.p., 60 min before the test
# [6] = 100 mg/kg i.p., 60 min before the test, mice with rectal temperature below 35.0° C removed
# [7] = 200 mg/kg i.p., 60 min before the test
# [8] = 200 mg/kg i.p., 60 min before the test, mice with rectal temperature below 35.0° C removed
# [9] = 20 mg/kg i.p., 30 minutes before the test
# [10] = 50 mg/kg i.p., 30 minutes before the test
# [11] = 100 mg/kg i.p., 60 minutes before the test
# [12] = 200 mg/kg i.p., 60 minutes before the test
structure (smiles),measurement,setting,value
"C=C(C)[C@@H]1CC(O)C(C)=C[C@H]1c1c(O)cc(Br)cc1O (single isomer, unassigned) [Compound I]","Clonic convulsion, Latency, Compared with Vehicle (i.p.) %",[1]; [3],+44%
same,"Clonic convulsion, Presence, %",[1]; [3],70%
same,"Clonic convulsion, Presence, Compared with Vehicle (i.p.) %",[1]; [3],−30%
same,"Clonic convulsion, Presence, Total",[1]; [3],7/10
same,"Death, Presence, %",[1]; [3],20%
same,"Death, Presence, Compared with Vehicle (i.p.) %",[1]; [3],−50%
same,"Death, Presence, Total",[1]; [3],2/10
same,"Tonic extension, Latency, Compared with Vehicle (i.p.) %",[1]; [3],+461%
same,"Tonic extension, Presence, %",[1]; [3],40%
same,"Tonic extension, Presence, Compared with Vehicle (i.p.) %",[1]; [3],−60%
same,"Tonic extension, Presence, Total",[1]; [3],4/10
same,"Wild running, Latency, Compared with Vehicle (i.p.) %",[1]; [3],+55%
same,"Wild running, Presence, %",[1]; [3],80%
same,"Wild running, Presence, Compared with Vehicle (i.p.) %",[1]; [3],−20%
same,"Wild running, Presence, Total",[1]; [3],8/10
same,"Clonic convulsion, Latency (s) Median",[1]; [3],9.5 s
same,"Tonic extension, Latency (s) Median",[1]; [3],60.0 s
same,"Wild running, Latency (s) Median",[1]; [3],5.1 s
same,"Clonic convulsion, Latency, Compared with Vehicle (i.p.) %",[1]; [4],+809%
same,"Clonic convulsion, Presence, %",[1]; [4],40%
same,"Clonic convulsion, Presence, Compared with Vehicle (i.p.) %",[1]; [4],−60%
same,"Clonic convulsion, Presence, Total",[1]; [4],4/10
same,"Death, Presence, %",[1]; [4],0%
same,"Death, Presence, Compared with Vehicle (i.p.) %",[1]; [4],−100%
same,"Death, Presence, Total",[1]; [4],0/10
same,"Tonic extension, Latency, Compared with Vehicle (i.p.) %",[1]; [4],+461%
same,"Tonic extension, Presence, %",[1]; [4],0%
same,"Tonic extension, Presence, Compared with Vehicle (i.p.) %",[1]; [4],−100%
same,"Tonic extension, Presence, Total",[1]; [4],0/10
same,"Wild running, Latency, Compared with Vehicle (i.p.) %",[1]; [4],+924%
same,"Wild running, Presence, %",[1]; [4],50%
same,"Wild running, Presence, Compared with Vehicle (i.p.) %",[1]; [4],−50%
same,"Wild running, Presence, Total",[1]; [4],5/10
same,"Clonic convulsion, Latency (s) Median",[1]; [4],60.0 s
same,"Tonic extension, Latency (s) Median",[1]; [4],60.0 s
same,"Wild running, Latency (s) Median",[1]; [4],33.8 s
same,"Clonic convulsion, Latency, Compared with Vehicle (i.p.) %",[1]; [5],+809%
same,"Clonic convulsion, Presence, Compared with Vehicle (i.p.) %",[1]; [5],−100%
same,"Death, Presence, Compared with Vehicle (i.p.) %",[1]; [5],−100%
same,"Tonic extension, Latency, Compared with Vehicle (i.p.) %",[1]; [5],+461%
same,"Tonic extension, Presence, Compared with Vehicle (i.p.) %",[1]; [5],−100%
same,"Wild running, Latency, Compared with Vehicle (i.p.) %",[1]; [5],+1718%
same,"Wild running, Presence, Compared with Vehicle (i.p.) %",[1]; [5],−100%
same,"Clonic convulsion, Latency (s) Median",[1]; [5],60.0 s
same,"Tonic extension, Latency (s) Median",[1]; [5],60.0 s
same,"Wild running, Latency (s) Median",[1]; [5],60.0 s
same,"Clonic convulsion, Presence, %",[1]; [6],0%
same,"Clonic convulsion, Presence, Total",[1]; [6],0/6
same,"Death, Presence, %",[1]; [6],0%
same,"Death, Presence, Total",[1]; [6],0/6
same,"Tonic extension, Presence, %",[1]; [6],0%
same,"Tonic extension, Presence, Total",[1]; [6],0/6
same,"Wild running, Presence, %",[1]; [6],0%
same,"Wild running, Presence, Total",[1]; [6],0/6
same,Mice with a rectal temperature below 35.0° C,[1]; 100 mg/kg i.p.,Four mice
same,Tremor noted (number of mice),[1]; 100 mg/kg i.p.,5 mice
same,"Clonic convulsion, Latency, Compared with Vehicle (i.p.) %",[1]; [7],+809%
same,"Clonic convulsion, Presence, Compared with Vehicle (i.p.) %",[1]; [7],−80%
same,"Death, Presence, Compared with Vehicle (i.p.) %",[1]; [7],−100%
same,"Tonic extension, Latency, Compared with Vehicle (i.p.) %",[1]; [7],+461%
same,"Tonic extension, Presence, Compared with Vehicle (i.p.) %",[1]; [7],−100%
same,"Wild running, Latency, Compared with Vehicle (i.p.) %",[1]; [7],+1718%
same,"Wild running, Presence, Compared with Vehicle (i.p.) %",[1]; [7],−80%
same,"Clonic convulsion, Latency (s) Median",[1]; [7],60.0 s
same,"Tonic extension, Latency (s) Median",[1]; [7],60.0 s
same,"Wild running, Latency (s) Median",[1]; [7],60.0 s
same,"Clonic convulsion, Presence, %",[1]; [8],33%
same,"Clonic convulsion, Presence, Total",[1]; [8],2/6
same,"Death, Presence, %",[1]; [8],0%
same,"Death, Presence, Total",[1]; [8],0/6
same,"Tonic extension, Presence, %",[1]; [8],0%
same,"Tonic extension, Presence, Total",[1]; [8],0/6
same,"Wild running, Presence, %",[1]; [8],33%
same,"Wild running, Presence, Total",[1]; [8],2/6
same,Mice with a rectal temperature below 35.0° C,[1]; 200 mg/kg i.p.,Four mice
same,Tremor noted (number of mice),[1]; 200 mg/kg i.p.,3 mice
same,Effect on the number of deaths,"[1]; any doses (20, 50, 100, 200 mg/kg i.p.)",did not affect the number of deaths at any doses
same,"Forelimb clonus, Compared with Vehicle B (i.p.) %",[2]; [9],0%
same,Forelimb clonus (mean ± s.e.m.),[2]; [9],0.8 ± 0.1
same,"Forelimb clonus, Compared with Vehicle B (i.p.) %",[2]; [10],−38%
same,Forelimb clonus (mean ± s.e.m.),[2]; [10],0.5 ± 0.1
same,Slight sedation (mice affected),[2]; 100 mg/kg i.p.,Two mice out of the 13
same,"Forelimb clonus, Compared with Vehicle B (i.p.) %",[2]; [11],−88%
same,Forelimb clonus (mean ± s.e.m.),[2]; [11],0.1 ± 0.1
same,Tremor (mice affected),[2]; 200 mg/kg i.p.,Two mice out of the 14
same,Sedation (mice affected),"[2]; 200 mg/kg i.p., 14 mice",all mice showed slight (12 mice) to moderate (2 mice) sedation
same,"Forelimb clonus, Compared with Vehicle B (i.p.) %",[2]; [12],−63%
same,Forelimb clonus (mean ± s.e.m.),[2]; [12],0.3 ± 0.1
